Assay results published in patent US5776959A, “Anticonvulsant and anxiolytic lactam and thiolactam derivatives” (priority 1995, dated 1998).

Assays:
[1] = Rotorod Test for Toxicity (neurotoxicity); type: in vivo, mouse; conditions: mouse, in vivo, mice, ip, 30 min
Experimental: (§1) Rotorod Test for Toxicity
(§2) This test is used in mice to assess neurotoxicity. Mice were placed on a 1 in. diameter rod, which rotates at 6 rpm, and tested for maintenance of their equilibrium for 10 min. All mice were pre-tested before a test substance is given. Test compounds are dissolved in 30% polyethylene glycol and given by intraperitoneal (ip) injections in a volume of 0.01 mL/g of body weight. […] This test also measures sedative effect of the compound tested. […] 21, 1985.

[2] = tested on: pentylenetetrazol (PTZ) seizures in mice; experiment: Pentylenetetrazol Seizure Threshold Test (PTZ); type: in vivo, mouse (female CF-1); conditions: Mus musculus, 0.5 h, ip, 30 min before pentylenetetrazol 85 mg/kg ip, read-out: Convulsant Challenge ED50, PTZ
Experimental: Pentylenetetrazol Seizure Threshold Test (PTZ)
Anticonvulsant screening was accomplished by methods based on those of Swinyard and Woodhead using female CF-1 strain mice. […] The animals were placed in isolation cages and observed for the next 30 minutes for the presence or absence of a seizure. A threshold convulsion is defined as one episode of clonic spasms that persists for at least a 5-sec period.

[3] = tested on: maximal electroshock (MES) seizures in mice; experiment: Maximal Electroshock Seizure Test (MES); type: in vivo; conditions: Mus musculus, 0.5 h, ip, 30 min before electroshock 50 mA 0.2 sec, read-out: Convulsant Challenge ED50, MES
Experimental: Maximal Electroshock Seizure Test (MES)
Test compounds were dissolved in 30% polyethylene glycol and given by intraperitoneal (ip) injections in a volume of 0.01 mL/g of body weight. […] Corneal electrodes were applied to the eyes, and an electrical stimulus consisting of a 60-Hz alternating current of 50 mA was delivered for 0.2 sec. The animals were held by hand and released at the time of stimulation for observation of the seizure. Abolition of the hindleg tonic extension component was taken as the endpoint for this test.

[4] = tested on: neurotoxicity in mice; experiment: Rotorod Test for Toxicity (neurotoxicity); type: in vivo, mouse; conditions: ip, 30 min
Experimental: as §1, §2

[5] = Convulsant activity (observation of seizures in injected mice); conditions: mouse, in vivo, read-out: Convulsive Activity CD50
Experimental: Convulsant activity of test compounds is assessed by monitoring injected mice by monitoring seizures by observing for the onset of myoclonic twitches, generalized clonic seizures and tonic seizures.

[6] = tested on: sedation in mice; conditions: 100 mg/kg; cited from earlier work
[7] = tested on: GABAA receptor; experiment: Potentiation of GABA currents in cultured rat hippocampal neurons (GABAA receptor electrophysiology test, whole-cell patch clamp); type: cell-based, rat (Sprague-Dawley)
Experimental: Hippocampal Cell Culture Methods
Under halothane anaesthesia, 1 day old female Sprague-Dawley rats were sacrificed by rapid decapitation and the hippocampi were dissected, minced and incubated in 3 mL of Leibovitz's L-15 containing 1 mg/mL papain and 0.2 mg/mL bovine serum albumin (BSA) for 20 min. at 37° C. The papain solution was removed and the hippocampi were triturated with pasteur pipettes in growth medium. The resulting suspension was centrifuged through 2 mL of medium containing 10 mg/mL trypsin inhibitor and 10 mg/mL BSA. The cells were resuspended into growth medium and plated, 2.5×10^5 cells/dish, on a monolayer of cortical glial cells in 35 mm plastic culture dishes. The culture dishes were pretreated with poly-L-lysine followed by plating of glial cells harvested from the cortices of 2-6 day postnatal rats four days prior to neuron plating. […]
Medium in the culture dishes was replaced with an extracellular solution containing: 140 mM NaCl, 3 mM KCl, 10 mM HEPES, 5 mm MgCl2, and 5.5 mM glucose. Neurons were recorded using the whole cell configuration of the patch clamp technique, (Hamil P O, Marty A, Neher E, Sakmann B, Sakmann J F (1981) "Improved patch-clamp techniques for high resolution current recordings from cells and cell-free membrane patches" Pfluegers Arch., 391, 85-100.) and the neuronal membrane was clamped to a potential of 130 mV. […]

[8] = tested on: anxiety in mice (plus-maze); experiment: Anxiolytic plus-maze test; type: in vivo, mouse (male NIH Swiss); conditions: for Time spent on Plus-Maze Open Arms (% of Control): mice, ip, 30 min, 5 min test
From the text: A modification of the plus-maze test (Lister R G (1987) "The use of a plus-maze to measure anxiety in the mouse" Psychopharmacology, 92, 180-185.) was used to measure the anxiolytic activity of the compounds of this invention in mice. The plus-maze apparatus used in the test consisted of four 30 cm×5 cm arms, two of which were enclosed by 16 cm high walls while the other two were unwalled. The four arms radiated out from a 5×5 cm central platform. The entire maze was elevated 34 cm on legs. The floor parts of the maze were made of wood painted black. The walls were clear plexiglass.
Male mice of the NIH Swiss strain are used in the test which is carried out in a room with no distractions. Test compounds were dissolved in 30% polyethylene glycol and given by intraperitoneal (ip) injections in a volume of 0.01 mL/g of body weight. […] During each 5 minute test, the number of entries to open arms and closed arms and the amount of time spent on each were recorded. A mouse has entered an arm when all four feet are on the arm. Each mouse was used only once. The anxiolytic dose of a test compound is that dose which causes a significant increase in the amount of time the test mouse spends in the open arms of the plus-maze in comparison to the amount of time a control mouse not receiving a test compound spends in the open arms of the maze.

[9] = tested on: convulsant seizures; conditions: in vivo; cited from earlier work

Compound: CCC1(C)CCN(C)C1=O (stereo not drawn) [1,3-Dimethyl-3-ethyl-2-pyrrolidinone]
- TD50 at 0.5 h [1]: 520 mg/kg
- ED50 [2]: 259 mg/kg

Compound: O=C1CCCCN1 [2-Piperidinone, reference compound]
- TD50 at 0.5 h [1]: > 600 mg/kg
- ED50 [2]: > 600 mg/kg

Compound: O=C1CCCN1 [2-Pyrrolidinone, reference compound]
- ED50 [3]: > 600 mg/kg
- Toxicity TD50 [4]: > 900 mg/kg
- ED50 [2]: > 900 mg/kg

Compound: CC1(C)CNC(=O)C1(C)C [3,3,4,4-Tetramethyl-2-pyrrolidinone]
- CD50 (convulsant dose, 50%) [5]: 32 mg/kg

Compound: CCC1(CC)CCCNC1=O [3,3-Diethyl-2-piperidinone]
- ED50 [3]: 56 mg/kg
- TD50 at 0.5 h [1]: 177 mg/kg
- sedative activity reported in literature [6]: weak sedative activity
- ED50 [2]: 39 mg/kg

Compound: CCC1(CC)CCNC1=O [3,3-Diethyl-2-pyrrolidinone]
- % Potentiation Relative to Control (N) ([7]; compound 1 mM, 3 μM GABA, mean ± SEM, percent of control response (100%)): 274 ± 64%
- enhancement of GABA-mediated chloride ion currents ([7]; cultured rat hippocampal neurons): more effectively than the previously described α-ethyl-α-methyl-γ-thiobutyrolactone
- ED50 [3]: 174 mg/kg
- Toxicity TD50 [4]: 260 mg/kg
- anxiolytic activity ([8]; compared to α-ethyl-α-methyl-γ-thiobutyrolactone, Table 3): significantly stronger anxiolytic activity
- Time spent on Plus-Maze Open Arms (% of Control) ([8]; dose 100 mg/kg): 179%
- Time spent on Plus-Maze Open Arms (% of Control) ([8]; dose 175 mg/kg): 253%
- ED50 [2]: 46 mg/kg

Compound: CCC1(CC)CC(C)(C)NC1=O [3,3-Diethyl-5,5-dimethyl-2-pyrrolidinone]
- CD50 (convulsant dose, 50%) [5]: 75 mg/kg

Compound: CC1(C)CCNC1=O [3,3-Dimethyl-2-pyrrolidinone, 3,3-dimethyl-2-pyrrolidinone, reference compound]
- ED50 [3]: > 600 mg/kg
- TD50 at 0.5 h [1]: 900 mg/kg
- anticonvulsant activity reported in literature [9]: no anticonvulsant activity
- ED50 [2]: 708 mg/kg

Compound: CCC1CCCNC1=O (stereo not drawn) [3-Ethyl-2-Piperidinone, reference compound]
- TD50 at 0.5 h [1]: 382 mg/kg
- ED50 [2]: 339 mg/kg

Compound: CCC1(C)CCCNC1=O (stereo not drawn) [3-Ethyl-3-Methyl-2-Piperidinone, 3-ethyl-3-methyl-2-piperidinone]
- ED50 [3]: 198 mg/kg
- TD50 at 0.5 h [1]: 382 mg/kg
- ED50 [2]: 162 mg/kg

Compound: CCC1(Cc2ccccc2)CCCNC1=O (stereo not drawn) [3-Ethyl-3-phenylmethyl-2-piperidinone, 3-ethyl-3-phenylmethyl-2-piperidinone]
- ED50 [3]: 79 mg/kg
- TD50 at 0.5 h [1]: 102 mg/kg
- ED50 [2]: 61 mg/kg

Compound: CCC1CC(C)(C)NC1=O (stereo not drawn) [3-Ethyl-5,5-dimethyl-2-pyrrolidinone]
- CD50 (convulsant dose, 50%) [5]: 106 mg/kg

Compound: CC1CCCNC1=O (stereo not drawn) [3-Methyl-2-Piperidinone, reference compound]
- ED50 [3]: > 600 mg/kg
- TD50 at 0.5 h [1]: > 600 mg/kg
- ED50 [2]: > 600 mg/kg

Compound: CC1CCNC1=O (stereo not drawn) [3-Methyl-2-pyrrolidinone, reference compound]
- ED50 [3]: > 750 mg/kg
- TD50 at 0.5 h [1]: ~900 mg/kg
- ED50 [2]: > 900 mg/kg

Compound: CC1(Cc2ccccc2)CCCNC1=O (stereo not drawn) [3-Methyl-3-phenylmethyl-2-piperidinone, 3-methyl-3-phenylmethyl-2-piperidinone]
- ED50 [3]: 49 mg/kg
- TD50 at 0.5 h [1]: 131 mg/kg
- ED50 [2]: 56 mg/kg

Compound: O=C1NCCCC1Cc1ccccc1 (stereo not drawn) [3-Phenylmethyl-2-piperidinone, 3-phenylmethyl-2-piperidinone]
- ED50 [3]: 42 mg/kg
- TD50 at 0.5 h [1]: 294 mg/kg
- ED50 [2]: 85 mg/kg

Compound: O=C1NCCC1Cc1ccccc1 (stereo not drawn) [3-Phenylmethyl-2-pyrrolidinone, 3-phenylmethyl-2-pyrrolidinone]
- ED50 [3]: 41 mg/kg
- Toxicity TD50 [4]: 144 mg/kg
- ED50 [2]: 71 mg/kg

Compound: CC1(C)CNC(=O)C1 [4,4-Dimethyl-2-pyrrolidinone, reference compound]
- TD50 at 0.5 h [1]: > 600 mg/kg
- ED50 [2]: 600 mg/kg

Compound: CCC1(C)CNC(=O)C1 (stereo not drawn) [4-Ethyl-4-Methyl-2-pyrrolidinone, 4-ethyl-4-methyl-2-pyrrolidinone, reference compound]
- ED50 [3]: > 300 mg/kg
- TD50 at 0.5 h [1]: > 300 mg/kg
- anticonvulsant activity reported in literature [9]: much less active
- ED50 [2]: 327 mg/kg

Compound: CC1(C)CCC(=O)N1 [5,5-Dimethyl-2-pyrrolidinone]
- CD50 (convulsant dose, 50%) [5]: 387 mg/kg

Compound: CC1(C)CCSC1=O [α,α-dimethyl-y-thiobutyrolactone]
- ED50 [2]: > 500 mg/kg
